Among the data in US10065950B2, “Substituted thiazoles as HIV integrase inhibitors” (Japan Tobacco Inc., priority 2010, dated 2018) are IC50 values, retold here.

The test has as its target HIV-1 pNL4-3 integrase (Human immunodeficiency virus type 1 group M subtype B (isolate NY5) (HIV-1), UniProt P12497). Kind of test: Determination of enzyme (HIV integrase) inhibitory activity. The test is classed as biochemical. Conditions: calculated from inhibition rate (fluorescence). Summed up: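 Full-length pNL4-3 integrase from E. coli (0.75 μM stock) reacted 60 min at 37° C with compound and biotinylated donor DNA bound to streptavidin plates, in MOPS buffer with 5 mM MgCl2 and 10% DMSO. Digoxigenin-labelled target DNA (25 nM stock) then added for 20 min; strand transfer read by peroxidase anti-digoxigenin fluorescence (Ex 325/Em 420 nm).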

For the compound `CNC(=O)C1(C)CN(C(C)C)C(=O)c2c(O)c(=O)c(-c3ncc(Cc4ccc(F)cc4F)s3)cn21` (centres unmarked) [Example 29], the IC50 is 10 nM. The result for `CCOC[C@H]1CN(C(C)C)C(=O)c2c(O)c(=O)c(-c3ncc(Cc4ccc(F)cc4)s3)cn21` [Example 141] reads 8 nM. The figure for `CCN1C(=O)c2c(O)c(=O)c(-c3nnc(Cc4ccc(F)cc4)s3)cn2[C@@H](COC)[C@H]1C` [Example 258] is 9.3 nM; for `COCC1(C)CN(C(C)C)C(=O)c2c(O)c(=O)c(-c3ncc(Cc4ccc(F)cc4F)s3)cn21` (centres unmarked) [Example 121] it is 16 nM. The result for `CC(C)N1C(=O)c2c(O)c(=O)c(-c3nnc(Cc4ccc(F)cc4)s3)cn2C[C@@]1(C)C(=O)N(C)C` [Example 315] reads 8.8 nM; that for `CCN1C[C@](C)(C(=O)N2CCCC2)n2cc(-c3nnc(Cc4ccc(F)cc4)s3)c(=O)c(O)c2C1=O` [Example 200], 9.6 nM; that for `CCNC(=O)[C@@]1(C)CN(C(C)C)C(=O)c2c(O)c(=O)c(-c3nnc(Cc4ccc(F)cc4)s3)cn21` [Example 180], 10 nM. Regarding `CO[C@@H](C)[C@H]1CN(C(C)C)C(=O)c2c(O)c(=O)c(-c3ncc(Cc4ccc(F)cc4)s3)cn21` [Example 388], the 50% inhibitory concentration (IC50) is 8.6 nM.

Turning to `COCCOC[C@H]1CN(CC(C)(C)C)C(=O)c2c(O)c(=O)c(-c3nnc(Cc4ccc(F)cc4)s3)cn21` [Example 123], the IC50 is 27 nM. `COC[C@@H]1Cn2cc(-c3ncc(Cc4ccc(F)cc4)s3)c(=O)c(O)c2C(=O)N1CC1CC1` [Example 217]: the IC50 is 5.3 nM. Regarding `CC(C)N1C(=O)c2c(O)c(=O)c(-c3nnc(Cc4ccc(F)cc4F)s3)cn2CC1CCO` (centres unmarked) [Example 90], the IC50 is 6.7 nM.

For `CC(C)N1C(=O)c2c(O)c(=O)c(-c3nnc(Cc4ccc(F)cc4)s3)cn2C[C@H]1CN(C)C(=O)C(C)(C)C` [Example 182], the IC50 was 9.7 nM. Regarding `COC[C@@H]1Cn2cc(-c3nnc(CCc4ccc(F)cc4F)s3)c(=O)c(O)c2C(=O)N1C(C)C` [Example 317], the IC50 is 9.8 nM. In the case of `CC[C@H](C)N1C[C@@H](COC)n2cc(-c3nnc(Cc4ccc(F)cc4)s3)c(=O)c(O)c2C1=O` [Example 166], the IC50 is 12 nM. The result for `CCC(C)(C)C(=O)N(C)C[C@@H]1Cn2cc(-c3nnc(Cc4ccc(F)cc4)s3)c(=O)c(O)c2C(=O)N1C(C)C` [Example 183] reads 10 nM; that for `CN(C)C(=O)[C@@]1(C)CN(C2CC2)C(=O)c2c(O)c(=O)c(-c3nnc(Cc4ccc(F)cc4)s3)cn21` [Example 178], 20 nM; that for `CCNC(=O)[C@]1(COC)CN(C(C)C)C(=O)c2c(O)c(=O)c(-c3ncc(Cc4ccc(F)cc4)s3)cn21` [Example 393], 15 nM. The figure for `CC[C@@H]1Cn2cc(-c3nnc(Cc4ccc(F)cc4)s3)c(=O)c(O)c2C(=O)N1C(C)C` [Example 278] is 9.9 nM. Take `COCCN(C)C(=O)CC1CN(C(C)C)C(=O)c2c(O)c(=O)c(-c3ncc(Cc4ccc(F)cc4F)s3)cn21` (centres unmarked) [Example 73]: the IC50 is 7.7 nM. The figure for `COC[C@@H]1[C@H](C)n2cc(-c3nnc(Cc4ccc(F)cc4)s3)c(=O)c(O)c2C(=O)N1CC1CC1` [Example 257] is 9.1 nM; for `CCN1C(=O)c2c(O)c(=O)c(-c3ncc(Cc4ccc(F)cc4)s3)cn2C[C@H]1C` [Example 330] it is 6.4 nM.

Consider `CC(C)N1CC(C)(C(=O)N(C)C)n2cc(-c3ncc(Cc4ccc(F)cc4F)s3)c(=O)c(O)c2C1=O` (centres unmarked) [Example 28], for which the IC50 is 15 nM. Turning to `CC(C)N1C(=O)c2c(O)c(=O)c(-c3nnc(Cc4ccc(F)cc4F)s3)cn2CC1C(=O)O` (centres unmarked) [Example 50], the IC50 was 6.4 nM. As to `CCO[C@H](CC)[C@H]1CN(C(C)C)C(=O)c2c(O)c(=O)c(-c3nnc(Cc4ccc(F)cc4)s3)cn21` [Example 389], the IC50 was 14 nM.

As for `COCCOC[C@H]1CN(C2CCC2)C(=O)c2c(O)c(=O)c(-c3nnc(Cc4ccc(F)cc4F)s3)cn21` [Example 86], the IC50 is 9.5 nM. In the case of `CC(C)N1CC(C)(C(=O)O)n2cc(-c3ncc(Cc4ccc(F)cc4F)s3)c(=O)c(O)c2C1=O` (centres unmarked) [Example 24], the IC50 was 23 nM.

For the compound `CCN1C(=O)c2c(O)c(=O)c(-c3nnc(Cc4ccc(F)cc4F)s3)cn2C[C@@H]1COC` [Example 114], the IC50 is 8.1 nM.

Take `CC(C)N1CC(CC(N)=O)n2cc(-c3ncc(Cc4ccc(F)cc4F)s3)c(=O)c(O)c2C1=O` (centres unmarked) [Example 35]: the IC50 was 6.7 nM. On to `CCN(CC)C(=O)CC1CN(C(C)C)C(=O)c2c(O)c(=O)c(-c3ncc(Cc4ccc(F)cc4F)s3)cn21` (centres unmarked) [Example 77], for which the IC50 was 11 nM. The result for `CCN1C(=O)c2c(O)c(=O)c(-c3nnc(Cc4ccc(F)cc4F)s3)cn2C[C@@H]1COCCOC` [Example 130] reads 13 nM. For `CCN1C(=O)c2c(O)c(=O)c(-c3ncc(Cc4ccc(F)cc4)s3)cn2C[C@H]1C(C)C` [Example 329], the IC50 was 6.1 nM. On to `CCN1C(=O)c2c(O)c(=O)c(-c3nnc(Cc4ccc(F)cc4)s3)cn2C[C@@H]1[C@@H](C)OC` [Example 395], for which the IC50 is 10 nM.

`CCN1C(=O)c2c(O)c(=O)c(-c3ncc(Cc4ccc(F)cc4)s3)cn2C[C@H]1[C@H](C)OC` [Example 333]: the IC50 was 7.5 nM. The result for `CCN(C)C(=O)[C@]1(C)Cn2cc(-c3nnc(Cc4ccc(F)cc4)s3)c(=O)c(O)c2C(=O)N1C(C)C` [Example 331] reads 9.3 nM; that for `CC(C)N1C[C@H](C(C)(C)C)n2cc(-c3nnc(Cc4ccc(F)cc4)s3)c(=O)c(O)c2C1=O` [Example 193], 11 nM. Take `COC[C@H]1CN([C@@H](C)C(C)C)C(=O)c2c(O)c(=O)c(-c3nnc(Cc4ccc(F)cc4F)s3)cn21` [Example 136]: the IC50 was 11 nM.

On to `CC(C)N1C(=O)c2c(O)c(=O)c(-c3nnc(Cc4ccc(F)cc4F)s3)cn2CC1CO` (centres unmarked) [Example 37], for which the IC50 was 6.3 nM. `COC[C@H]1CN(C(C)(C)C)C(=O)c2c(O)c(=O)c(-c3nnc(Cc4ccc(F)cc4F)s3)cn21` [Example 131]: the IC50 was 13 nM.

In the case of `CC(C)N1C(=O)c2c(O)c(=O)c(-c3nnc(Cc4ccc(F)cc4F)s3)cn2CC1C(=O)N(C)C` (centres unmarked) [Example 53], the IC50 was 10 nM. On to `CC(C)N1C[C@](C)(C(=O)N2CC[C@@H](O)C2)n2cc(-c3nnc(Cc4ccc(F)cc4)s3)c(=O)c(O)c2C1=O` [Example 205], for which the IC50 is 13 nM.

Turning to `CC(C)N1CC(C)(C(=O)N2CCC2)n2cc(-c3ncc(Cc4ccc(F)cc4F)s3)c(=O)c(O)c2C1=O` (centres unmarked) [Example 94], the IC50 was 8.8 nM.

In the case of `CC(=O)N(C)CC1(C)CN(C(C)C)C(=O)c2c(O)c(=O)c(-c3ncc(Cc4ccc(F)cc4F)s3)cn21` (centres unmarked) [Example 139], the IC50 is 12 nM. Regarding `COC[C@H]1CN(C(C)C)C(=O)c2c(O)c(=O)c(-c3nnc(Cc4ccc(OC)cc4)s3)cn21` [Example 240], the IC50 was 52 nM. The result for `CO[C@H](C)[C@@H]1CN(C(C)C)C(=O)c2c(O)c(=O)c(-c3nnc(Cc4ccc(F)cc4)s3)cn21` [Example 338] reads 7.1 nM; that for `COC[C@@H]1[C@H](C)n2cc(-c3ncc(Cc4ccc(F)cc4)s3)c(=O)c(O)c2C(=O)N1C(C)C` [Example 247], 10 nM.

`CC(C)N1C[C@H](C)n2cc(-c3nnc(Cc4ccc(F)cc4F)s3)c(=O)c(O)c2C1=O` [Example 149]: the IC50 was 5.9 nM. The figure for `CC(=O)N(C)C[C@@]1(C)CN(C(C)C)C(=O)c2c(O)c(=O)c(-c3nnc(Cc4ccc(F)cc4F)s3)cn21` [Example 197] is 14 nM; for `CC(C)N1CC(CC(=O)N(C)C)n2cc(-c3ncc(Cc4ccc(F)cc4F)s3)c(=O)c(O)c2C1=O` (centres unmarked) [Example 21] it is 9.4 nM. The result for `CC(C)OC[C@H]1CN(C(C)C)C(=O)c2c(O)c(=O)c(-c3nnc(Cc4ccc(F)cc4)s3)cn21` [Example 365] reads 12 nM.

With `CN(C)C(=O)[C@@]1(C)CN(C)C(=O)c2c(O)c(=O)c(-c3nnc(Cc4ccc(F)cc4F)s3)cn21` [Example 335], the IC50 is 9.8 nM. The result for `COC[C@H]1CN([C@H](C)C2CC2)C(=O)c2c(O)c(=O)c(-c3nnc(Cc4ccc(F)cc4)s3)cn21` [Example 302] reads 9.9 nM. The figure for `CNC(=O)[C@@]1(C)CN(C(C)C)C(=O)c2c(O)c(=O)c(-c3nnc(Cc4ccc(F)cc4)s3)cn21` [Example 185] is 15 nM; for `CCN1C(=O)c2c(O)c(=O)c(-c3nnc(Cc4ccc(F)cc4)s3)cn2[C@@H](COC)[C@@H]1C` [Example 284] it is 11 nM; for `CCC(=O)N(C)CC1(C)CN(C(C)C)C(=O)c2c(O)c(=O)c(-c3ncc(Cc4ccc(F)cc4F)s3)cn21` (centres unmarked) [Example 7] it is 13 nM. On to `CN1C[C@@](C)(C(=O)N2CCC2)n2cc(-c3ncc(Cc4ccc(F)cc4)s3)c(=O)c(O)c2C1=O` [Example 266], for which the IC50 is 11 nM. The figure for `CC(C)N1CC(C)(C(=O)N(C)C)n2cc(-c3ncc(Cc4ccc(F)cc4F)s3)c(=O)c(O)c2C1=O` (centres unmarked) [Example 152] is 5.9 nM. The figure for `CC(C)N1CC(C)(C(=O)N2CCOCC2)n2cc(-c3ncc(Cc4ccc(F)cc4F)s3)c(=O)c(O)c2C1=O` (centres unmarked) [Example 52] is 13 nM; for `CNC(=O)C1CN(C)C(=O)c2c(O)c(=O)c(-c3ncc(Cc4ccc(F)cc4F)s3)cn21` (centres unmarked) [Example 160] it is 6.1 nM; for `COC[C@@H]1Cn2cc(-c3nnc(Cc4ccc(F)cc4F)s3)c(=O)c(O)c2C(=O)N1CC1CC1` [Example 126] it is 7.3 nM. As for `CCN1C(=O)c2c(O)c(=O)c(-c3ncc(Cc4ccc(F)cc4)s3)cn2C[C@]1(C)C(=O)N(C)C` [Example 293], the IC50 is 9.6 nM.

For `COCCOC[C@H]1Cn2cc(-c3ncc(Cc4ccc(F)cc4F)s3)c(=O)c(O)c2C(=O)N1CC(C)C` [Example 58], the IC50 was 17 nM. `COCC1Cn2cc(-c3nnc(Cc4ccc(F)cc4F)s3)c(=O)c(O)c2C(=O)N1C(C)C` (centres unmarked) [Example 42]: the IC50 is 3.4 nM.

The term IC50 denotes the concentration that gives 50% inhibition.
